Data as given in patent US9260481B2, “Peptide derivatives as antibiotics” (priority 2011, dated 2016).
Where two headings read alike, the source gives them in different places. Numbered stars: 1 amine (or outer) side, 2 acyl side, 3 side chain; on linkers, the order of the positions; unused ones are H or OH. Square brackets hold non-standard residues; d marks the D form. Peptide text beside a SMILES is read from it. * marks the point of attachment. ξ: configuration not given here. X1 = NCC(O)CCC(N[*:1])C(=O)[*:2]; ΔZArg = N=C(N)NCC/C=C(\N)C(=O)O; ξDab(3-OH) = NCC(O)C(N)C(=O)O; Orn = NCCC[CH](N)C(=O)O; NH(CH2)4NH2 = NCCCCN*

Tests used:
P. aeruginosa ATCC 27853 [1] = test: Bacterial killing curves (time-to-kill); format: cell-based, Pseudomonas aeruginosa; conditions: growing P. aeruginosa ATCC 27853, at four-fold the MIC
Method: Bacterial killing curves were carried out by inoculating S. aureus ATCC 13709 and P. aeruginosa ATCC 27853 with Odilomycin A concentration equal to four-fold the MIC. […] S. aureus and P. aeruginosa inoculi were prepared from colonies grown overnight in MHB. Antibiotics concentrations in the flask were adjusted in MHB according to the desired concentration. Culture tubes containing 10 mL were inoculated with S. aureus or P. aeruginosa at an approximate inoculum of 10^5 CFU/mL. Samples were drawn and bacteria were counted at 0, 1, 2, 3, 4, 6 and 24 h of incubation at 37° C. Thus, after vortexing the culture tubes, two 50 μL samples were removed and serially diluted with MHB. After each dilution step, 20 μL was plated onto LB agar plates, which were incubated for 24 h at 37° C. Afterwards the colonies were counted and back-extrapolated to the original volume to determine the initial concentration (CFU/mL).

[2] = test system: S. aureus Smith ATCC 13709; test: Acute lethal infection in mice; format: in vivo, ICR mice; conditions: for Survival of all treated mice: S. aureus infection; for Animal deaths Day 0 / Animal deaths Day 1 / Animal deaths Day 3 / Animal deaths Day 4 / Animal deaths Day 5 / Animal deaths Day 2: mice, S. aureus 5 log10 CFU/mouse IP, n=6
Method: Female ICR mice ordered from Harlan Laboratories (Indianapolis, Ind.) weighing 19-21 g were used in experiments of acute lethal infection. Mice were fully immunocompetent. Infection was induced by inoculating intraperitoneally in mice a bacterial suspension of S. aureus Smith ATCC 13709. The bacterial challenges (ca 5 log10 CFU/mouse) were given suspended in 0.5 mL of 20% hog mucin. […] Mortality was tracked out to 5 days post challenge. Animals that remained surviving at the end of the study were humanely euthanized.

Cytotoxicity test (MTS) = format: cell-based; conditions: human; for CC50 at 72 h: MTS; for viability at 72 h: dose of up to 100 μg/mL, read-out: cell viability
Method: The cytotoxicity of the Odilomycins A-C was investigated against Human colon adenocarcinoma (HT29) cells and Human normal lung fibroblasts (MRC-5) cells. 200 μL of the cell suspension of HT29 (human colorectal adenocarcinoma) prepared in RPMI 1640+1% L-Glutamine supplemented with 10% (v/v) fetal calf serum and 200 μL of the cell suspension of MRC5 (human lung fibroblast) prepared in Dulbecco's modified Eagle's medium supplemented with 25 mM glucose and 10% (v/v) fetal calf serum were inoculated into 96-well plates.
The inoculating cell number was 800 cells per well for HT29 and 2100 cells per well for MRC-5. The microplates were incubated at 37° C. for 24 h with 5% of CO2.
Twenty four hours later, Odilomycin A, B or C dissolved in water were added for 72 h at a final concentration from 0.78 μg/mL to 100 μg/mL in a fixed volume of water (1% final concentration). […] Experiments were done in triplicate.

S. aureus ATCC 25923 = format: cell-based, Staphylococcus aureus; conditions: ATCC 25923
Excerpt: Vancomycin, rifampicin, kanamycin, gentamicin, ampicillin, ciprofloxacin and tetracycline (Sigma-Aldrich) were provided as standard powders by the manufacturers.

S. aureus ATCC 13709 = format: cell-based, Staphylococcus aureus; conditions: ATCC 13709, 24 h
Method: (§1) Minimal bactericidal concentrations (MBCs) were established by extending the MIC procedure to the evaluation of bactericidal activity. After 24 hours, 10 μL were drawn from the wells, serially diluted and then spotted onto suitable agar plates. The plates were incubated at 37° C. overnight. […] All the experiments were done in triplicate.

P. aeruginosa ATCC 27853 [3] = test: Acute lethal infection in mice; format: in vivo, BALB/c mice; conditions: mice, P. aeruginosa 8.6 log10 CFU/mouse IP, n=6
Method: Female BALB/c mice ordered from Harlan Laboratories (Indianapolis, Ind.) weighing 19-21 g were used in experiments of acute lethal infection. Mice were fully immunocompetent. Infection was induced by inoculating intraperitoneally in mice a bacterial suspension of P. aeruginosa ATCC 27853. The bacterial challenges (8.6 log10 CFU/mouse) were given suspended in 0.1 mL sterile saline. Treatments were administered once 1 hour after challenge via IV injection (Tobramycin was administered via IP injection immediately after challenge) (Table 13). Mortality was tracked out to 2 days post challenge. Animals that remained surviving at the end of the study were humanely euthanized.

P. aeruginosa ATCC 27853 [4] = format: cell-based, Pseudomonas aeruginosa; conditions: ATCC 27853, 24 h
Method: as §1

[5] = Odilomycin A 1.0 mg/kg IV at 1 hr
[6] = Odilomycin A 2.5 mg/kg IV at 1 hr
[7] = Odilomycin A 5.0 mg/kg IV at 1 hr
[8] = HT29 colon adenocarcinoma cells
[9] = MRC-5 normal lung fibroblasts, MRC-5 cells
[10] = Odilomycin A 7.5 mg/kg IV at 1 hr
[11] = Odilomycin A 15 mg/kg IV at 1 hr

N=C(N)NCC/C=C(\NC(=O)C(CCC(O)CN)NC(=O)C(Cc1cnc[nH]1)NC(=O)C1CCCN1C(=O)C(CCCN)NC(=O)CNC(=O)C(NC(=O)C(NC(=O)C(N)CCCCN)C(O)CN)C(O)CN)C(=O)NC(CCC(O)CN)C(=O)NCCCCN (stereo not drawn) [Odilomycin A, Lys-(3-hydroxy-2,4-diaminobutanoic acid)-(3-hydroxy-2,4-diaminobutanoic acid)-Gly-Ornithine-Pro-His-(5-hydroxylysine)-(2,3-dehydroarginine)-(5-hydroxylysine)-(1,4-diaminobutane)] (H-K[ξDab(3-OH)][ξDab(3-OH)]G[Orn]PH[X1][ΔZArg][X1]-{NH(CH2)4NH2}; configuration not given here)
≤ 2 h: Time to kill 100% of bacteria (P. aeruginosa ATCC 27853 [1])
1: Animal deaths Day 2 (P. aeruginosa ATCC 27853 [3]; [10])
100%: viability at 72 h (Cytotoxicity test (MTS); [8]) | viability at 72 h (Cytotoxicity test (MTS); [9])
0.78 mg/L: MBC (S. aureus ATCC 13709)
survived up to 5 days after infection: Survival of all treated mice ([2]; Odilomycin A 2.5 mg/kg IV) | Survival of all treated mice ([2]; Odilomycin A 5.0 mg/kg IV)
6.25 mg/L: MBC (P. aeruginosa ATCC 27853 [4])
4: Animal deaths Day 1 (P. aeruginosa ATCC 27853 [3]; [10]) | Animal deaths Day 2 (P. aeruginosa ATCC 27853 [3]; [11])
0: Animal deaths Day 0 [2, 5] | Animal deaths Day 1 [2, 5] | Animal deaths Day 3 [2, 5] | Animal deaths Day 4 [2, 5] | Animal deaths Day 5 [2, 5] | Animal deaths Day 0 [2, 6] | Animal deaths Day 1 [2, 6] | Animal deaths Day 2 [2, 6] | Animal deaths Day 3 [2, 6] | Animal deaths Day 4 [2, 6] | Animal deaths Day 5 [2, 6] | Animal deaths Day 0 [2, 7] | Animal deaths Day 1 [2, 7] | Animal deaths Day 2 [2, 7] | Animal deaths Day 3 [2, 7] | Animal deaths Day 4 [2, 7] | Animal deaths Day 5 [2, 7] | Animal deaths Day 0 (P. aeruginosa ATCC 27853 [3]; [10]) | Animal deaths Day 0 (P. aeruginosa ATCC 27853 [3]; [11])
0.39 mg/L: MIC antibiotic alone (S. aureus ATCC 25923)
> 100 mg/L: CC50 at 72 h (Cytotoxicity test (MTS); [8]) | CC50 at 72 h (Cytotoxicity test (MTS); [9])
